# The source made the active and inactive calls. No cut-off for these calls is given here.
# Columns and labels:
# [1] = Cytotoxicity against human 6647 cells measured after 72 hrs by MTT assay; format: functional, cell-based; conditions: Homo sapiens, 6647, 72 h
# [2] = target: Histone deacetylase 4 (Homo sapiens) (UniProt P56524); assay: Inhibition on human recombinant HDAC4 at 10 uM measured after 20 min by luminescence glo assay
# [3] = Cytotoxicity against human TC71 cells measured after 72 hrs by MTT assay; format: functional, cell-based; conditions: TC-71, 72 h
# [4] = target: T1, Protein deacetylase HDAC6 (Homo sapiens) (UniProt Q9UBN7); assay: Inhibition on human recombinant HDAC6 at 10 uM measured after 20 min by luminescence glo assay
# T1 sequence (whole entry): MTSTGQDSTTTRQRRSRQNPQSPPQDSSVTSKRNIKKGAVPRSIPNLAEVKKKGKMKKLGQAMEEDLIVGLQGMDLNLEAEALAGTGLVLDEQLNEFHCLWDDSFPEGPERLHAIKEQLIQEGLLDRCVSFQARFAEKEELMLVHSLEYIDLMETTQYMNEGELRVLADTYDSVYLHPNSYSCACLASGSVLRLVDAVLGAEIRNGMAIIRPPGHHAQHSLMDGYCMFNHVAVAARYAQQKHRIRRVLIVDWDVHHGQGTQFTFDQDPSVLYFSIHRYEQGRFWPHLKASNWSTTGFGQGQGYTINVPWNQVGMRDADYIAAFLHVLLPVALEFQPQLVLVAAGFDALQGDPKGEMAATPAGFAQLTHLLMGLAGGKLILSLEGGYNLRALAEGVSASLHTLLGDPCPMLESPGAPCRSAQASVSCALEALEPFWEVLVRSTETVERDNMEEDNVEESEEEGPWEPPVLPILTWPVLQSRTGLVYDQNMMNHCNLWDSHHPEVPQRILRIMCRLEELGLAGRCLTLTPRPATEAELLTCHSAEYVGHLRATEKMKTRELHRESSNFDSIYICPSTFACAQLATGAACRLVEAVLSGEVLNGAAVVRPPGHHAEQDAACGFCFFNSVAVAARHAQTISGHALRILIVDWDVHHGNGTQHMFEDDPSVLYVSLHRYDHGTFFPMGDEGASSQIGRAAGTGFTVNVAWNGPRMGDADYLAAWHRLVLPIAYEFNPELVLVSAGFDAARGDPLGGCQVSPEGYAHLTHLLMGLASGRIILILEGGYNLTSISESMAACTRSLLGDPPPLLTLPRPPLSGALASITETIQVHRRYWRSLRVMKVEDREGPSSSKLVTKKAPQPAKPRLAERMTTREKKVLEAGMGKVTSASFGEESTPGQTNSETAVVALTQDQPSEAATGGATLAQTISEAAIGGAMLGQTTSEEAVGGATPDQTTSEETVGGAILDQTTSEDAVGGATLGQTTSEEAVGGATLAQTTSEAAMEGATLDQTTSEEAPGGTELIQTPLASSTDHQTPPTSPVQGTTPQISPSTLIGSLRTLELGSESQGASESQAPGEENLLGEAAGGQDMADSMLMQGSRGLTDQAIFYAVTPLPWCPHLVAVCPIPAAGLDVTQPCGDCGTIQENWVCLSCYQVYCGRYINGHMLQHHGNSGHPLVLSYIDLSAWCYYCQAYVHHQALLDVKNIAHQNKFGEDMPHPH
# [5] = test system: MCF7; assay: Cytotoxicity against human MCF7 cells measured after 72 hrs by MTT assay; format: functional, cell-based; conditions: MCF7, 72 h
# [6] = test system: NCI-H82; assay: Cytotoxicity against human NCI-H82 cells measured after 72 hrs by MTT assay; format: functional, cell-based; conditions: NCI-H82, 72 h
# [7] = test system: IGROV-1; assay: Cytotoxicity against human IGROV-1 cells measured after 72 hrs by MTT assay; format: functional, cell-based; conditions: IGROV-1, 72 h
# [8] = test system: HCT-116; assay: Cytotoxicity against human HCT-116 cells measured after 72 hrs by MTT assay; format: functional, cell-based; conditions: HCT-116, 72 h
# [9] = test system: TC-32; assay: Cytotoxicity against human TC-32 cells measured after 72 hrs by MTT assay; format: functional, cell-based; conditions: TC-32, 72 h
# [10] = test system: PC-3; assay: Cytotoxicity against human PC-3 cells measured after 72 hrs by MTT assay; format: functional, cell-based; conditions: PC-3, 72 h
# [11] = test system: 786-0; assay: Cytotoxicity against human 786-0 cells measured after 72 hrs by MTT assay; format: functional, cell-based; conditions: 786-0, 72 h
# [12] = test system: CAKI-1; assay: Cytotoxicity against human CAKI-1 cells measured after 72 hrs by MTT assay; format: functional, cell-based; conditions: CAKI-1, 72 h
# [13] = target: {'v': 'CYP2C19', 'o': 'p', 'q': 'Inhibition of CYP2C19 (unknown origin)'} (Homo sapiens, UniProt P33261); assay: Inhibition of CYP2C19 (unknown origin) at 10 uM pre-incubated for 30 min followed by addition of NADPH and measured after 30 min by Luminescence based plate reader method relative to control; format: ADME; conditions: time 60 min
# [14] = target: {'v': 'CYP2D6', 'o': 'p', 'q': 'Inhibition of CYP2D6 (unknown origin)'} (Homo sapiens, UniProt P10635); assay: Inhibition of CYP2D6 (unknown origin) at 10 uM pre-incubated for 30 min followed by addition of NADPH and measured after 30 min by Luminescence based plate reader method relative to control; format: ADME; conditions: time 60 min
# [15] = target: 3',5'-cyclic-AMP phosphodiesterase 4C (Homo sapiens) (UniProt Q08493); assay: Inhibition of PDE4C1 (unknown origin) at 10 uM incubated for 60 mins followed by addition of binding agent and measured after 20 mins by Fluorescence Polarization assay relative to control; conditions: time 80.0 min
# [16] = target: Aurora kinase B (Homo sapiens) (UniProt Q96GD4); assay: Inhibition of Aurora B kinase (unknown origin) at 10 uM in presence of ATP incubated for 30 min followed by addition of kinase glo-reagent measured after 20 mins by Luminescence based plate reader assay relative to control; conditions: time 50.0 min
# [17] = test system: SK-N-MC; assay: Cytotoxicity against human SK-N-MC cells measured after 72 hrs by MTT assay; format: functional, cell-based
# [18] = test system: NCI-H69; assay: Cytotoxicity against human NCI-H69 cells measured after 72 hrs by MTT assay; format: functional, cell-based; conditions: NCI-H69, 72 h
# [19] = test system: HCT-116; assay: Cytotoxicity against human HCT-116 cells at 30 uM assessed as cell proliferation rate measured after 72 hrs by MTT assay relative to control; format: functional
# [20] = test system: SK-N-MC; assay: Inhibition of human Akt in human SK-N-MC cell assessed as inhibition of Akt phosphorylation at 1 uM measured after 30 min by Western blot analysis; format: tissue-based
# [21] = Volume of distribution in CD-1 mouse at 10 mg/kg iv measured by UPLC-MS/MS method; format: ADME, organism-based; conditions: in vivo
# [22] = test system: SK-N-MC; assay: Upregulation of C-Myc protein expression level in human SK-N-MC cell at 1 uM incubated for 2 hrs by western blot analysis; format: functional, tissue-based
# [23] = Drug uptake in human […] cell at 1.5 uM measured with in 5 min by UPLC-MS/MS analysis; format: ADME, tissue-based
# [24] = test system: SK-N-MC; assay: Cytotoxicity against human SK-N-MC cells at 30 uM assessed as cell proliferation rate measured after 72 hrs by MTT assay relative to control; format: functional
# [25] = Drug uptake in human […] cell at 1.5 uM measured upto 120 min by UPLC-MS/MS analysis; format: ADME, tissue-based; conditions: 2 h
# Chain of Histone deacetylase 4 (Homo sapiens) (P56524 whole entry): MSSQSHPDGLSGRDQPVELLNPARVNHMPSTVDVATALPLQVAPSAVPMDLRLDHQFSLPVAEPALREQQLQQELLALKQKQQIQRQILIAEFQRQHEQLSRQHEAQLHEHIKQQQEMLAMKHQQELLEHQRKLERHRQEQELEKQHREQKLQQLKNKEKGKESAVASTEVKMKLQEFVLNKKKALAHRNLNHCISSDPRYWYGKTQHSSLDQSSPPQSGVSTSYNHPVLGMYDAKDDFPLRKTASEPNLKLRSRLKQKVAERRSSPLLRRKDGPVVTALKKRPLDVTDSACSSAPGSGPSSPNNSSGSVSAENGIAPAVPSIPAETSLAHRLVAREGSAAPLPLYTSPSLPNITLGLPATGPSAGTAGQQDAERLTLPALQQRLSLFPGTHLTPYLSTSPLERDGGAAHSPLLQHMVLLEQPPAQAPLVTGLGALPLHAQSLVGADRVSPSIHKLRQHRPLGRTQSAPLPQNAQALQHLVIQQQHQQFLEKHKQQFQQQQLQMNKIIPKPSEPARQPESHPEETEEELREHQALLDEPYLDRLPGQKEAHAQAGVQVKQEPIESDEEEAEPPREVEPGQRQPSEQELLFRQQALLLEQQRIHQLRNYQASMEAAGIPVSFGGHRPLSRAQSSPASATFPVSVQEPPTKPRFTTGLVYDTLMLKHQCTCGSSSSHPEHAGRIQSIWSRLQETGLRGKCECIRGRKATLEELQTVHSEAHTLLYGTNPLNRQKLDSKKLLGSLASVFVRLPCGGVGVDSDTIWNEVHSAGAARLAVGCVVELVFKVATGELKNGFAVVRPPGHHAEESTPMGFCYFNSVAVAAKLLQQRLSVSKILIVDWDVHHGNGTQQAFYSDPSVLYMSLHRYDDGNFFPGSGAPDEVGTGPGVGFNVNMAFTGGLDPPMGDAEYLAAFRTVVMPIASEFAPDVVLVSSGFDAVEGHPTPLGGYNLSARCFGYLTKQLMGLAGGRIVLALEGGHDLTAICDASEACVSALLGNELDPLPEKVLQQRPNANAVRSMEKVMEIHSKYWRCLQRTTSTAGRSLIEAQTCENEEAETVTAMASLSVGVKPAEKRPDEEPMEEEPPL
# Chain of {'v': 'CYP2C19', 'o': 'p', 'q': 'Inhibition of CYP2C19 (unknown origin)'} (P33261 whole entry): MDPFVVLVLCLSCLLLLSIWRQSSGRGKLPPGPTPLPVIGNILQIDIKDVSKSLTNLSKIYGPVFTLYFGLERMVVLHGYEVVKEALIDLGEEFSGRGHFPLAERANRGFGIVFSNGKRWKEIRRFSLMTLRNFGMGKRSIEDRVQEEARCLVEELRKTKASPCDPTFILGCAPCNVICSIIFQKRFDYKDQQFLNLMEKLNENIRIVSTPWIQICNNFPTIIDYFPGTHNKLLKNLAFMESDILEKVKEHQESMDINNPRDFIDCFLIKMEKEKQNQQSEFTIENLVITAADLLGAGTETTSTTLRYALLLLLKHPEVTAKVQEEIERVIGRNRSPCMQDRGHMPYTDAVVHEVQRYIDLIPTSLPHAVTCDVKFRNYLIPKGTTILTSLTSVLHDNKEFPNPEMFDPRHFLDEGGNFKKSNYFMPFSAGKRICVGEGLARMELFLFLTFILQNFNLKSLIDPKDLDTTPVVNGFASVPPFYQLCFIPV
# Chain of Aurora kinase B (Homo sapiens) (Q96GD4 whole entry): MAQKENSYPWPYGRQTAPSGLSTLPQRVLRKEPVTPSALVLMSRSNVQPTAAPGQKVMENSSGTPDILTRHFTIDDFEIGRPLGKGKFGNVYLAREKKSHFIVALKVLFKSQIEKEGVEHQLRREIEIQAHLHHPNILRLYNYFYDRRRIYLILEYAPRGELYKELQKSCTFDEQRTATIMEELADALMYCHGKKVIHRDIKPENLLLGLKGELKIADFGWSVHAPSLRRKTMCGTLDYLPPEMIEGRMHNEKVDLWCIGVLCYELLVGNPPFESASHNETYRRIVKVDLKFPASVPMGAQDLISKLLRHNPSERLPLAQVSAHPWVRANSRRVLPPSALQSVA
# Chain of 3',5'-cyclic-AMP phosphodiesterase 4C (Homo sapiens) (Q08493 whole entry): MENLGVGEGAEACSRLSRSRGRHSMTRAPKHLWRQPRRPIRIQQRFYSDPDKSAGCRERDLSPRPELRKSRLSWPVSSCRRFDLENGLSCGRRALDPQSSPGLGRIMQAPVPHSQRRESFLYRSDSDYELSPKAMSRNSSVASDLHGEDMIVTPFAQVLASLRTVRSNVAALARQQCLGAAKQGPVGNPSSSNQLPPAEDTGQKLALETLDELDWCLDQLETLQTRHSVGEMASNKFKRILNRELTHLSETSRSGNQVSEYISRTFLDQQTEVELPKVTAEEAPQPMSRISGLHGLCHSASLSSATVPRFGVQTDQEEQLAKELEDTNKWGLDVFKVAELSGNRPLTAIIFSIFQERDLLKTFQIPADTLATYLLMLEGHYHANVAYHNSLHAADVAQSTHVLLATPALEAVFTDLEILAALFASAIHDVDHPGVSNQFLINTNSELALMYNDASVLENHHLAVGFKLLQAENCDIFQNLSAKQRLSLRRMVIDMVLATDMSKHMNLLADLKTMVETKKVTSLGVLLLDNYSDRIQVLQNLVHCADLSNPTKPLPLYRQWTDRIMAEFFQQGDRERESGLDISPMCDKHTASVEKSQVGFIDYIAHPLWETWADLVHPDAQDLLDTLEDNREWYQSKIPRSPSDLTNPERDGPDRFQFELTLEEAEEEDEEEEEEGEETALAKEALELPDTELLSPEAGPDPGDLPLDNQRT
# Chain of {'v': 'CYP2D6', 'o': 'p', 'q': 'Inhibition of CYP2D6 (unknown origin)'} (P10635 whole entry): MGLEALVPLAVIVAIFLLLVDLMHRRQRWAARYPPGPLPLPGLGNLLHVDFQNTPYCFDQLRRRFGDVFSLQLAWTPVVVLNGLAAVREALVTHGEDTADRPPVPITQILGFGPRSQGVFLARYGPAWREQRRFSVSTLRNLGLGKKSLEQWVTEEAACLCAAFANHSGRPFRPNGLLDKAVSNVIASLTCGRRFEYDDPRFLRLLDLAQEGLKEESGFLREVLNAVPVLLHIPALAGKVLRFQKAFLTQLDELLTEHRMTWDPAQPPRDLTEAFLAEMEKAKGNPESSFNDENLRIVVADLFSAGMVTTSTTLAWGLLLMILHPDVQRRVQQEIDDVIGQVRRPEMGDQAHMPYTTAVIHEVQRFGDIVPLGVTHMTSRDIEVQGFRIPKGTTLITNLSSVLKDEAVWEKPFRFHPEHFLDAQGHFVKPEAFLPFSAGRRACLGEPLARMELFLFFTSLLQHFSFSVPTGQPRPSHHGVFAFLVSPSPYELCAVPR
SMILES,IC50 [1] [µM],inhibition [2] [%],IC50 [3] [µM],inhibition [4] [%],IC50 [5] [µM],IC50 [6] [µM],IC50 [7] [µM],IC50 [8] [µM],IC50 [9] [µM],IC50 [10] [µM],IC50 [11] [µM],IC50 [12] [µM],"inhibition at 0.5 h, 10 µM [13] [%]","inhibition at 0.5 h, 10 µM [14] [%]",inhibition [15] [%],inhibition [16] [%],IC50 [17] [µM],IC50 [18] [µM],also measured
Cc1c(Br)cc(C(=O)N[C@@H](C(=O)Nc2ccc3c(c2)/C(=C/c2cnc[nH]2)C(=O)N3)c2ccccc2)c(=O)n1Cc1ccc(F)c(F)c1,> 30,< 30,> 30,< 30,> 30,> 30,> 30,> 30,> 30,> 30,> 30,> 30,< 45,< 45,< 30,< 20,> 30,> 30,
O=C1Nc2ccc(NC(=O)[C@H](NC(=O)c3cccn(Cc4ccc(F)c(F)c4)c3=O)c3ccccc3)cc2/C1=C/c1cnc[nH]1 (stereo in doubt),4.8,< 30,16.9,< 30,> 30,> 30,> 30,3.6,> 30,> 30,> 30,> 30,,,< 30,< 20,3,> 30,Emax at 30 µM [19]: 60%; inhibition [20]: Active; Vd [21]: 0.37 L; Activity [22]: Active; Drug uptake [23]: 100 ng/mL; Emax at 30 µM [24]: 75%; Drug uptake [25]: 800 ng/mL
O=C(CCNC(=O)c1cccn(Cc2ccc(F)c(F)c2)c1=O)Nc1ccc2c(c1)/C(=C/c1cnc[nH]1)C(=O)N2,,< 30,,< 30,,,,,,,,,> 90,> 90,< 30,< 20,,,
Cc1ccc(C(=O)NCC(=O)Nc2ccc3c(c2)/C(=C/c2cnc[nH]2)C(=O)N3)c(=O)n1Cc1ccc(F)c(F)c1,,< 30,,< 30,,,,,,,,,> 90,> 90,< 30,< 20,,,

# Reference: ChEMBL document CHEMBL5036349, “Development of potent dual PDK1/AurA kinase inhibitors for cancer therapy: Lead-optimization, structural insights, and ADME-Tox profile” (Eur J Med Chem, 2021)
